Laboratory results reported in patent publication US11866518B2, “Bicyclic peptide ligands specific for TSLP” (BicycleTx Limited, priority 2020, dated 2024).
pKd: −log10 of the molar value. Read-outs that look alike come from different tables or passages of the source. *1 amine or outer side, *2 acyl side, *3 side chain or, on linkers, in order; H or OH if unused. Where a SMILES comes first, the peptide text is derived from it. Bridges are numbered along the chain shown (N, C = ends). TATA = O=C(CC[*:1])N1CN(C(=O)CC[*:2])CN(C(=O)CC[*:3])C1

Columns and labels:
[1] = the molecule shown is the open-chain precursor
TSLP [2] = target: T1, TSLP (Homo sapiens, UniProt Q969D9); assay: Human peripheral blood mononuclear cell assay (TSLP-induced CCL17/TARC); format: cell-based; parameters: host or cells: added to human PBMCs from healthy donors; details: read-out: CCL17 % Inhibition @ 10 μM, […] TSLP
Procedure, shortened: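 Healthy-donor PBMCs (3 million cells/mL, RPMI + 10% FCS) received bicycle peptide or vehicle (0.1% DMSO) premixed 30 min at rt with TSLP, then were incubated 24 h at 37 °C, 10% CO2. Supernatant CCL17/TARC quantified by MSD.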

TSLP [3] = target: T1, TSLP; assay: Human TSLP Surface Plasmon Resonance (SPR) binding assay; parameters: The resulting construct spCD33-6×HN-TEV-hTSLP(29-159)-Avi; 6xHN tag with TEV site (N, cleaved yes); made in house; host or cells: Expi293F cells; details: biotinylated human TSLP immobilized on streptavidin chip; 20° C.; steady-state or kinetic 1:1 fit; read-out: hTSLP SPR Kd
[4] = crosslinker bond, 29-membered ring, TATA/NH4HCO3, MeCN/H2O

T1 sequence (Q969D9 29-159): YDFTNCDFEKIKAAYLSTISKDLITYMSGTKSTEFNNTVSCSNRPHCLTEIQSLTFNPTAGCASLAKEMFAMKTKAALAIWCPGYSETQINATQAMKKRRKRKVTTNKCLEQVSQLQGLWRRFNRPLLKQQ

**Q.** For “H-Cys-MeAla-Nal1-Ala(tBu)-Gln-Asp-Cys-Trp(1-Me)-ADMA-Gly-Phe(4-F)-Cys-dAla-NH2?”, which ring closure, yield after HPLC ([1]; crosslinker bond, 29-membered ring, TATA/NH4HCO3, MeCN/H2O, 0.93 mM) is on record?
**A.** Its ring closure, yield after HPLC is 17%.

**Q.** With “Ac-Cys-Gln-X2-Leu-Glu-Asp-Cys-Trp-X1-Gly-Phe(4-F)-Cys-NH2 (X1=L-2-amino-azidobutanoic acid, X2=L-2-aminohept-6-ynoic acid; three Cys bridged by TATA)” as the compound, how does the ring closure, yield after HPLC ([1]; triazole bond, 27-membered ring, CuSO4/Na ascorbate, H2O/tBuOH) read?
**A.** Its ring closure, yield after HPLC is 1%.

**Q.** Which ring closure, yield after HPLC [1, 4] does the source give for “n-octanoyl-Cys-MeAla-Trp(1-Me)-Ala(tBu)-Gln-Asp-Cys-Trp(1-Me)-ADMA-Gly-Phe(4-F)-Cys-NH2” here?
**A.** The ring closure, yield after HPLC was 14%.

**Q.** With “N3CH2C(O)NH(CH2CH2O)3CH2CH2(CO)-Cys-MeAla-Trp(1-Me)-Ala(tBu)-Gln-Asp-Cys-Trp(1-Me)-ADMA-Gly-Phe(4-F)-Cys-NH2” as the compound, how does the ring closure, yield after HPLC [1, 4] read?
**A.** The ring closure, yield after HPLC was 12%.

**Q.** Which ring closure, yield after HPLC [1, 4] does the source give for “Ac-Cys-MeAla-Trp(1-Me)-Ala(tBu)-Gln-Asp-Cys-Trp(1-Me)-ADMA-Gly-Phe(4-F)-Cys-NH2?” here?
**A.** The ring closure, yield after HPLC was 19%.

**Q.** What does the source list for `CC(C)C[C@@H]1NC(=O)[C@H](Cc2c[nH]c3ccccc23)NC(=O)[C@H]([C@@H](C)O)NC(=O)[C@@H](NC(=O)[C@H](C)N)CSCCC(=O)N2CN3CN(C2)C(=O)CCSC[C@H](NC(=O)[C@H](CC(=O)O)NC(=O)[C@H](CCC(=O)O)NC1=O)C(=O)N[C@@H](Cc1c[nH]c2ccccc12)C(=O)N[C@@H](CCCNC(=N)N)C(=O)NCC(=O)N[C@@H](Cc1ccccc1)C(=O)N[C@H](C(=O)N[C@@H](C)C(=O)N[C@@H](CC(=O)O)C(=O)N[C@@H](CO)C(N)=O)CSCCC3=O` [Example 63, A-(SEQ ID NO: 49)-ADS] (H-ACTWLEDCWRGFCADS-NH2; linker 2-8-13 via TATA; N-terminus assumed)?
**A.** inhibition at 10 µM (TSLP [2]): 24%; pKd (TSLP [3]): 7.19
